How the values were obtained:
[1] = BALLETS phase III clinical study: adverse event profile in subgroups of baseline endotrophin; assay type: in vivo, subjects with type 2 diabetes on stable insulin therapy
Excerpt: Testing Strategies) study was a phase III, randomized, double-blind, parallel-group, placebo and active comparator-controlled clinical study to determine the efficacy and safety of six months' treatment of balaglitazone or pioglitazone in subjects with type 2 diabetes on stable insulin therapy. The baseline demographics, CONSORT diagram as well as efficacy and safety data have previously been published (Henriksen, 2011). In the current study we used the per protocol population of the BALLETS study, which consisted of 299 subjects spread evenly over four groups (placebo, two doses of balaglitazone, and one dose of piogliatazone) as previously described (Henriksen, 2011), all with baseline and up to six follow-up parameters related to blood sugar control and Pro-C6 determinations under therapy.
The analysis included subjects from the per protocol population having a baseline measurement of serum Pro-C6. Subjects were grouped into one of three tertiles based on their baseline Pro-C6 value. Tertile 1 included subjects with baseline serum Pro-C6 of 6.2 ng/mL or below; tertile 2 had baseline serum Pro-C6 of 6.3 ng/mL to 7.7 ng/mL, and tertile 3 had baseline serum Pro-C6 of 7.8 ng/mL or above. Baseline characteristics between the three subgroups were compared by analysis of variance (ANOVA), and comparison of the proportion of genders in each tertile was compared by Fisher's exact test.
Lower leg edema, when measured as volume increase due to water displacement, was correlated with baseline serum endotrophin tertiles. Glitazone therapy led to increased lower leg volume in the lower and middle tertile, while there were no differences between treatment and placebo groups in the upper tertile (FIG. 12A-12C). There were no significant differences in the occurrence of AEs or SAEs in the three different treatment groups when stratified according to endotrophin levels. The difference between the SAEs in Table 10 and the lower leg oedema reported in FIGS. 12A-12C is a function of the lower leg volume being a quantitative measure and the reporting of oedemas being a patient reported output (FIGS. 10A-10C).

[2] = test system: around 10 kD bands in human serum and amniotic fluid; assay: Western blot of human serum and amniotic fluid; assay type: binding; settings: FIG. 2B
Method: Native reactivity of the chosen antibody was assessed using human serum pool and human amniotic fluid pool.

[3] = Tertile 1 baseline endotrophin, Balaglitazone 10 mg, n = 27
[4] = Tertile 1 baseline endotrophin, Balaglitazone 20 mg, n = 22
[5] = Tertile 2 baseline endotrophin, Balaglitazone 10 mg, n = 21
[6] = Tertile 2 baseline endotrophin, Balaglitazone 20 mg, n = 21
[7] = Tertile 3 baseline endotrophin, Balaglitazone 10 mg, n = 25
[8] = Tertile 3 baseline endotrophin, Balaglitazone 20 mg, n = 25
[9] = Tertile 1 baseline endotrophin, Pioglitazone 45 mg, n = 24
[10] = Tertile 2 baseline endotrophin, Pioglitazone 45 mg, n = 29
[11] = Tertile 3 baseline endotrophin, Pioglitazone 45 mg, n = 31

Chain of around 10 kD bands in human serum and amniotic fluid (P12111 3112-3177 limits assumed): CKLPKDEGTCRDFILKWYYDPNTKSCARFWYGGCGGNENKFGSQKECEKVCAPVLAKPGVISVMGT

For `Cn1c(COc2ccc(CC3SC(=O)NC3=O)cc2)nc2ccccc2c1=O` (stereo not drawn) [Balaglitazone, balaglitazone], the “All AEs, E” value [1, 3] was 38, the “All AEs, N (%)” value [1, 3] was 20 (74%) N (%) and the “Serious AEs, E” value [1, 3] was 1. The “Serious AEs, N (%)” value [1, 3] was 1 (4%) N (%), the “Severe AEs: Cardiac ischaemia, E” value [1, 3] was 0 and the “Severe AEs: Cardiac ischaemia, N (%)” value [1, 3] was 0 (0%) N (%). For the same molecule, the “Severe AEs: Heart failure, E” value [1, 3] was 0, the “Severe AEs: Heart failure, N (%)” value [1, 3] was 0 (0%) N (%) and the “Severe AEs: Peripheral oedema, E” value [1, 3] was 2. For the same molecule, the “Severe AEs: Peripheral oedema, N (%)” value [1, 3] was 2 (7%) N (%), the “Total severe AEs, E” value [1, 3] was 2 and the “Total severe AEs, N (%)” value [1, 3] was 2 (7%) N (%). The “All AEs, E” value [1, 4] was 33, the “All AEs, N (%)” value [1, 4] was 17 (77%) N (%) and the “Serious AEs, E” value [1, 4] was 1. The “Serious AEs, N (%)” value [1, 4] was 1 (5%) N (%), the “Severe AEs: Cardiac ischaemia, E” value [1, 4] was 2 and the “Severe AEs: Cardiac ischaemia, N (%)” value [1, 4] was 2 (9%) N (%). For the same molecule, the “Severe AEs: Heart failure, E” value [1, 4] was 0, the “Severe AEs: Heart failure, N (%)” value [1, 4] was 0 (0%) N (%) and the “Severe AEs: Peripheral oedema, E” value [1, 4] was 2. For the same molecule, the “Severe AEs: Peripheral oedema, N (%)” value [1, 4] was 2 (9%) N (%), the “Total severe AEs, E” value [1, 4] was 4 and the “Total severe AEs, N (%)” value [1, 4] was 4 (18%) N (%). For the same molecule, the “All AEs, E” value [1, 5] was 35, the “All AEs, N (%)” value [1, 5] was 17 (81%) N (%) and the “Serious AEs, E” value [1, 5] was 1. The “Serious AEs, N (%)” value [1, 5] was 1 (5%) N (%), the “Severe AEs: Cardiac ischaemia, E” value [1, 5] was 1 and the “Severe AEs: Cardiac ischaemia, N (%)” value [1, 5] was 1 (5%) N (%). For the same molecule, the “Severe AEs: Heart failure, E” value [1, 5] was 0, the “Severe AEs: Heart failure, N (%)” value [1, 5] was 0 (0%) N (%) and the “Severe AEs: Peripheral oedema, E” value [1, 5] was 3. The “Severe AEs: Peripheral oedema, N (%)” value [1, 5] was 3 (14%) N (%), the “Total severe AEs, E” value [1, 5] was 4 and the “Total severe AEs, N (%)” value [1, 5] was 4 (19%) N (%). For the same molecule, the “All AEs, E” value [1, 6] was 36, the “All AEs, N (%)” value [1, 6] was 15 (71%) N (%) and the “Serious AEs, E” value [1, 6] was 0. The “Serious AEs, N (%)” value [1, 6] was 0 (0%) N (%), the “Severe AEs: Cardiac ischaemia, E” value [1, 6] was 0 and the “Severe AEs: Cardiac ischaemia, N (%)” value [1, 6] was 0 (0%) N (%). The “Severe AEs: Heart failure, E” value [1, 6] was 0, the “Severe AEs: Heart failure, N (%)” value [1, 6] was 0 (0%) N (%) and the “Severe AEs: Peripheral oedema, E” value [1, 6] was 2. For the same molecule, the “Severe AEs: Peripheral oedema, N (%)” value [1, 6] was 2 (10%) N (%), the “Total severe AEs, E” value [1, 6] was 2 and the “Total severe AEs, N (%)” value [1, 6] was 2 (10%) N (%). For the same molecule, the “All AEs, E” value [1, 7] was 55, the “All AEs, N (%)” value [1, 7] was 20 (60%) N (%) and the “Serious AEs, E” value [1, 7] was 1. The “Serious AEs, N (%)” value [1, 7] was 1 (4%) N (%), the “Severe AEs: Cardiac ischaemia, E” value [1, 7] was 0 and the “Severe AEs: Cardiac ischaemia, N (%)” value [1, 7] was 0 (0%) N (%). The “Severe AEs: Heart failure, E” value [1, 7] was 0, the “Severe AEs: Heart failure, N (%)” value [1, 7] was 0 (0%) N (%) and the “Severe AEs: Peripheral oedema, E” value [1, 7] was 1. For the same molecule, the “Severe AEs: Peripheral oedema, N (%)” value [1, 7] was 1 (8%) N (%), the “Total severe AEs, E” value [1, 7] was 1 and the “Total severe AEs, N (%)” value [1, 7] was 1 (8%) N (%). The “All AEs, E” value [1, 8] was 43, the “All AEs, N (%)” value [1, 8] was 20 (60%) N (%) and the “Serious AEs, E” value [1, 8] was 6. For the same molecule, the “Serious AEs, N (%)” value [1, 8] was 6 (24%) N (%), the “Severe AEs: Cardiac ischaemia, E” value [1, 8] was 1 and the “Severe AEs: Cardiac ischaemia, N (%)” value [1, 8] was 1 (4%) N (%). For the same molecule, the “Severe AEs: Heart failure, E” value [1, 8] was 0, the “Severe AEs: Heart failure, N (%)” value [1, 8] was 0 (0%) N (%) and the “Severe AEs: Peripheral oedema, E” value [1, 8] was 1. The “Severe AEs: Peripheral oedema, N (%)” value [1, 8] was 1 (4%) N (%), the “Total severe AEs, E” value [1, 8] was 2 and the “Total severe AEs, N (%)” value [1, 8] was 2 (8%) N (%).

With `CCc1ccc(CCOc2ccc(CC3SC(=O)NC3=O)cc2)nc1` (stereo not drawn) [Pioglitazone, pioglitazone] the “All AEs, E” value [1, 9] was 45, the “All AEs, N (%)” value [1, 9] was 19 (79%) N (%) and the “Serious AEs, E” value [1, 9] was 1. The “Serious AEs, N (%)” value [1, 9] was 1 (4%) N (%), the “Severe AEs: Cardiac ischaemia, E” value [1, 9] was 0 and the “Severe AEs: Cardiac ischaemia, N (%)” value [1, 9] was 0 (0%) N (%). The “Severe AEs: Heart failure, E” value [1, 9] was 0, the “Severe AEs: Heart failure, N (%)” value [1, 9] was 0 (0%) N (%) and the “Severe AEs: Peripheral oedema, E” value [1, 9] was 5. The “Severe AEs: Peripheral oedema, N (%)” value [1, 9] was 5 (21%) N (%), the “Total severe AEs, E” value [1, 9] was 5 and the “Total severe AEs, N (%)” value [1, 9] was 5 (21%) N (%). For the same molecule, the “All AEs, N (%)” value [1, 10] was 17 (59%)^ N (%), the “Serious AEs, E” value [1, 10] was 3 and the “Serious AEs, N (%)” value [1, 10] was 2 (6%) N (%). For the same molecule, the “Severe AEs: Cardiac ischaemia, E” value [1, 10] was 1, the “Severe AEs: Cardiac ischaemia, N (%)” value [1, 10] was 1 (3%) N (%) and the “Severe AEs: Heart failure, E” value [1, 10] was 0. For the same molecule, the “Severe AEs: Heart failure, N (%)” value [1, 10] was 0 (0%) N (%), the “Severe AEs: Peripheral oedema, E” value [1, 10] was 5 and the “Severe AEs: Peripheral oedema, N (%)” value [1, 10] was 5 (17%) N (%). The “Total severe AEs, E” value [1, 10] was 6, the “Total severe AEs, N (%)” value [1, 10] was 5 (17%) N (%) and the “All AEs, N (%)” value [1, 11] was 25 (81%)^ N (%). The “Serious AEs, E” value [1, 11] was 6, the “Serious AEs, N (%)” value [1, 11] was 4 (13%) N (%) and the “Severe AEs: Cardiac ischaemia, E” value [1, 11] was 4. The “Severe AEs: Cardiac ischaemia, N (%)” value [1, 11] was 3 (10%) N (%), the “Severe AEs: Heart failure, E” value [1, 11] was 1 and the “Severe AEs: Heart failure, N (%)” value [1, 11] was 1 (3%) N (%). The “Severe AEs: Peripheral oedema, E” value [1, 11] was 2, the “Severe AEs: Peripheral oedema, N (%)” value [1, 11] was 2 (6%) N (%) and the “Total severe AEs, E” value [1, 11] was 7. The “Total severe AEs, N (%)” value [1, 11] was 6 (19%) N (%).

B1: 10A3: mouse IgG1/kappa monoclonal antibody against the last 10 amino acids of C-terminal COL6A3 (…); heavy chain SEQ ID NO:5, light chain SEQ ID NO:9 (antibody)
heavy: EVQLQQSGPVMVKPGTSVKTSCKASGYTFTDFNMNWVKQSHGKSLEWIGAINPHNGATSYNQKFSGKATLTVDKSSSTAYMELNSLTSDDSAVYYCARWGNGKNSWGQGTTLTVSSAKTTPPSVYPLAPGSAAQTNSMVTLGCLVKGYFPEPVTVTWNSGSLSSGVHTFPAVLQSDLYTLSSSVTVPSSTWPSETVTCNVAHPASSTKVDKKIVPRDCGCKPCICTVPEVSSVFIFPPKPKDVLTITLTPKVTCVVVDISKDDPEVQFSWFVDDVEVHTAQTQPREEQFNSTFRSVSELPIMHQDWLNGKEFKCRVNSAAFPAPIEKTISKTKGRPKAPQVYTIPPPKEQMAKDKVSLTCMITDFFPEDITVEWQWNGQPAENYKNTQPIMDTDGSYFVYSKLNVQKSNWEAGNTFTCSVLHEGLHNHHTEKSLSHSPGK
light: DVVMTQTPLSLPVNLGDQASISCRSSQRIVHSNGITFLEWYLQKPGQSPKLLIYRVSNRFSGVPDRFSGSGSGTDFTLKISRVEAEDLGLYYCFQGSHVPLTFGAGTRLELKRADAAPTVSIFPPSSEQLTSGGASVVCFLNNFYPKDINVKWKIDGSERQNGVLNSWTDQDSKDSTYSMSSTLTLTKDEYERHNSYTCEATHKTSTSPIVKSFNRNEC
modifications: Heavy chain sequence of mouse IgG1 isotype of monoclonal antibody 10A3; Light chain sequence of mouse Kappa isotype of monoclonal antibody 10A3
In the case of B1, the “western blot signal in the presence of the standard peptide” value [2] is reported as “completely blocked” and the “bands recognized in western blot” value ([2]; human serum and amniotic fluid) is reported as “around 10 kD”.
